The target in one data set is CDK12 (Homo sapiens, UniProt Q9NYV4). The data set can be described thus: Western blot degradation of CDK12 (Example 2). The class given is cell-based. More on the design: degradation of CDK12/13 protein in leukemia cells KASUMI-1, MV4-11, and Jurkat; endogenous in cells. The method, boiled down: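 Leukemia lines KASUMI-1, MV4-11, Jurkat, plus MDA-MB-231 for a concentration series, treated at 0.01–3 μM for 3–48 h at 37 °C against DMSO control. Lysates in 4% SDS; CDK12/13 band intensity normalized to β-Actin or GAPDH to give degradation rate.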
Chain of CDK12 (Q9NYV4 whole entry): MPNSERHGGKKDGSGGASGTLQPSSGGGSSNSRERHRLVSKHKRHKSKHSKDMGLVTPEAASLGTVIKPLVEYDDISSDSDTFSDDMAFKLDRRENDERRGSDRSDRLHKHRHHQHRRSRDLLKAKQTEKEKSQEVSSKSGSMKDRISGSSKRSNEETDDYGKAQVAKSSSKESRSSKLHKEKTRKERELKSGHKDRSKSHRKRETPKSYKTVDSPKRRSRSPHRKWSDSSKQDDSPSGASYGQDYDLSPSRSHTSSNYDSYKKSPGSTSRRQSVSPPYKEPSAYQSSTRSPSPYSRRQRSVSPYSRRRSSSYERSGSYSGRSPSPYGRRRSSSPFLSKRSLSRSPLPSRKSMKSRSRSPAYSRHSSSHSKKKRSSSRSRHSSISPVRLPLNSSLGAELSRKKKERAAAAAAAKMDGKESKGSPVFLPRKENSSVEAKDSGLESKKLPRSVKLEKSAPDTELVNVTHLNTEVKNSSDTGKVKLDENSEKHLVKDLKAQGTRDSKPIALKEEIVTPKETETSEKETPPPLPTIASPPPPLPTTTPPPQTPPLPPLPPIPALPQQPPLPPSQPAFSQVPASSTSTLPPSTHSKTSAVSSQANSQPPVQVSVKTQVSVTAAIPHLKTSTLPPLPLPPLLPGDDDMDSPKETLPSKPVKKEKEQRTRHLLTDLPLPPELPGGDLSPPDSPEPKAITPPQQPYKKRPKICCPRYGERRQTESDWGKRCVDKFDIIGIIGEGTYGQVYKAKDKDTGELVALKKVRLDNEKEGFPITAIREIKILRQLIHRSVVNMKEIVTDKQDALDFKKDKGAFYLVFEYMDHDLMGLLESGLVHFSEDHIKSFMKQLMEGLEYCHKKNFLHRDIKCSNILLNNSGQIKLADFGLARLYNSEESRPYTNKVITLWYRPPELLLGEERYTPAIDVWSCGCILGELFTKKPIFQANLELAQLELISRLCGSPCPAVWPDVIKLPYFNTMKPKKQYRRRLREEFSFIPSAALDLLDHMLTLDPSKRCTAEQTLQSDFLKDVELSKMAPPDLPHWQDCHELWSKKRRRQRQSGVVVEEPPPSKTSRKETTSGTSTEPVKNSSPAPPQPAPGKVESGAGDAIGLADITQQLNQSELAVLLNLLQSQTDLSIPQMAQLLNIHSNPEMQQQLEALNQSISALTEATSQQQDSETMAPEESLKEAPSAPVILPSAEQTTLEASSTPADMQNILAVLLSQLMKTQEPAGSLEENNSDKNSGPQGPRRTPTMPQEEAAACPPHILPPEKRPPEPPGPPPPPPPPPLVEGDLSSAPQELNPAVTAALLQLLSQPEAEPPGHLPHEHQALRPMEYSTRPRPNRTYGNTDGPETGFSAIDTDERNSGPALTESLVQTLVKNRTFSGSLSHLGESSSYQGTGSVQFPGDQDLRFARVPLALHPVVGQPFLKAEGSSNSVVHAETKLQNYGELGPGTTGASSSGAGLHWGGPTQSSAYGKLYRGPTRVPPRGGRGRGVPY
Chain of CDK12 (O75909 whole entry partner): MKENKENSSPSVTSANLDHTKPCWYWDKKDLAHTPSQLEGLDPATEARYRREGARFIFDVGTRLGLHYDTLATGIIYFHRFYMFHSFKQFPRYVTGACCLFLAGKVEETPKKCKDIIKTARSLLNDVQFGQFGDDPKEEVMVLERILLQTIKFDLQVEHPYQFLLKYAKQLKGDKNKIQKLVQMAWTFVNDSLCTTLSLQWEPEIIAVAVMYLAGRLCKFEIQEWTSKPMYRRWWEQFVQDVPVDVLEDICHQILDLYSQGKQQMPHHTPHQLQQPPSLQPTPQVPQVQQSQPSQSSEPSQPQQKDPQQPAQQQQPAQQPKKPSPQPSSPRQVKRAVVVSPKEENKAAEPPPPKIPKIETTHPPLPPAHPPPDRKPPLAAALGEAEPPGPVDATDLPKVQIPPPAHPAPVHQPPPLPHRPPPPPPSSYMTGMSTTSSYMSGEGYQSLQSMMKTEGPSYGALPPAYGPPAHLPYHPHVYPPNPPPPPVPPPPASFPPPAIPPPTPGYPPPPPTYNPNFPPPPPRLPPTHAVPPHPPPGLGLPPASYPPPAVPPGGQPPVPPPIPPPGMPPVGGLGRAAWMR
(Immunoblotting shows a protein as a band on a membrane.)

The nature of data set [1]: Liver microsome stability, dog. It is filed as in vitro ADME. As to conditions: liver microsomes. The method, then: (§1) • Compounds: Ketanserin, Formula 18, Formula 45 • Liver microsomes: Human liver microsomes (purchased from BioreclamationIVT); Dog, mouse, rat, and monkey liver microsomes (purchased from Xenotech)
(§2) Preparation of 500 μM compound solution: Add 5 μL of 10 mM compound solution and 95 μL of DMSO to an EP tube.
(§3) Preparation of solution containing 0.75 mg/mL liver microsomes and 1.5 μM compound: Add 1.5 μL of the 500 μM compound solution, 18.75 μL of the 20 mg/mL liver microsome solution, and 479.75 μL of PBS to an EP tube.
(§4) Preparation of 6 mM NADPH solution: Dissolve 5 mg of NADPH in 1 mL of PBS solution.
(§5) Add 30 μL of the solution containing 0.75 mg/mL liver microsomes and a concentration gradient of the compound to a 96-well plate. Add 15 μL of the 6 mM NADPH solution and 150 μL of a 1:1 acetonitrile:methanol solution containing an internal standard (IS). Vortex and centrifuge at 6,000 rpm for 10 min. 80 μL of the supernatant from each concentration sample is transferred to a 96-well plate containing 140 μL of pure water for LC/MS detection (injection volume of […]). […]
(§6) 80 μL of the supernatant from each well is transferred to a 96-well plate containing 140 μL of pure water for LC/MS detection (injection volume of […]). The compound concentration value is determined by comparing the corresponding mass spectrometry peak area with the standard curve. […]
A general note: Liver microsomes are vesicles of endoplasmic reticulum, rich in cytochrome P450 enzymes.

For data set [2], the target named is T1, CDK13 (Homo sapiens, UniProt Q14004). The data set can be described thus: Western blot degradation of CDK13 (Example 2). It is filed as cell-based. Details: degradation of CDK12/13 protein in leukemia cells KASUMI-1, MV4-11, and Jurkat; endogenous in cells. As to conditions: HCT116, colorectal cancer cells.
T1 sequence (Q14004 whole entry): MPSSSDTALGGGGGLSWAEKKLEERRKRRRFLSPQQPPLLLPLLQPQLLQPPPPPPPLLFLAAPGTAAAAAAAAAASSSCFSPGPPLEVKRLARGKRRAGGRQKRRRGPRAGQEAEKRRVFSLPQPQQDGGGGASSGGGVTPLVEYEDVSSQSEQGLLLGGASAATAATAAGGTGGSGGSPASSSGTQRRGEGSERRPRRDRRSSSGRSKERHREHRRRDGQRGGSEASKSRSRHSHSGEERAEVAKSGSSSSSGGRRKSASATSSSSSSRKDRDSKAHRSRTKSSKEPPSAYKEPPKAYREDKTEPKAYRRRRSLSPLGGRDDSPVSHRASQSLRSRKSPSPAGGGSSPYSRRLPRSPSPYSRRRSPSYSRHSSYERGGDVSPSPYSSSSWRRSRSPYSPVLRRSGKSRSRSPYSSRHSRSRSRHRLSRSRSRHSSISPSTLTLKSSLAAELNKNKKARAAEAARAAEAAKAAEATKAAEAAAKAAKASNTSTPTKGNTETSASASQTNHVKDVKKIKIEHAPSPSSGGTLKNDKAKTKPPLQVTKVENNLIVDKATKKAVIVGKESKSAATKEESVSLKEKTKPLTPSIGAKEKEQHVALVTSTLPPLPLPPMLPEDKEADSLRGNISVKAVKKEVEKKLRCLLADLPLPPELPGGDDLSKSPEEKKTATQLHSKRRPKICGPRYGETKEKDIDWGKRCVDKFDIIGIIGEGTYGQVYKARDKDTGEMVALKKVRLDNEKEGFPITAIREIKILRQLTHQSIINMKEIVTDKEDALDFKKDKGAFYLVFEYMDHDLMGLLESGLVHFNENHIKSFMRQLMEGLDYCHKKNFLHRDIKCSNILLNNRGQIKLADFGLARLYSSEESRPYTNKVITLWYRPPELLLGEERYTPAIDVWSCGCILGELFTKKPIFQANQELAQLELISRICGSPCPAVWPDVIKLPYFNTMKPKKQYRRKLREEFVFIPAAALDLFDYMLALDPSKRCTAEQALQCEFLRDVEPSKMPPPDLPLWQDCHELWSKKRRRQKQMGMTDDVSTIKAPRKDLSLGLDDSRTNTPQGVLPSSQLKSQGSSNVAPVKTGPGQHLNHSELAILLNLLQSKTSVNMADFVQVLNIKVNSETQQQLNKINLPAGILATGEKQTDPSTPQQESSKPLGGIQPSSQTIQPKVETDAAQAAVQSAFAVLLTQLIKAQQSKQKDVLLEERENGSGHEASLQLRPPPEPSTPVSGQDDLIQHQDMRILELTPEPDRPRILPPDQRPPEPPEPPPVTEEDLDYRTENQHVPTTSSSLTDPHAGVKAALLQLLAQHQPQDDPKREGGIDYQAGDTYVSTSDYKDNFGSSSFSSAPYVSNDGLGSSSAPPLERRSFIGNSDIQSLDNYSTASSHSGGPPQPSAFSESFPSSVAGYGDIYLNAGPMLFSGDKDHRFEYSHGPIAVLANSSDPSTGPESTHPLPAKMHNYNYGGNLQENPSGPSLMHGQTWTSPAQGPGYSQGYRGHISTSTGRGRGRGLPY
T1 sequence (O75909 whole entry partner): as the sequence (O75909 whole entry partner) above
Data set [3] concerns the target T1, CDK13. Put plainly: Western blot degradation of CDK13 (Example 2). More on the design: degradation of CDK12/13 protein in leukemia cells KASUMI-1, MV4-11, and Jurkat; endogenous in cells. It is filed as cell-based.
Data set [4] can be described thus: Liver microsome stability, human. The class given is in vitro ADME. As to conditions: liver microsomes. As to the method:
as §1, §2, §3, §4, §5, §6

A short description of data set [5]: Liver microsome stability, rat. The note with it: liver microsomes. The class given is in vitro ADME. The method, then:
as §1, §2, §3, §4, §5, §6

A short description of data set [6]: Liver microsome stability, monkey. It is filed as in vitro ADME. The note with it: liver microsomes. The method, then: as §1, §2, §3, §4, §5, §6

The text below walks through data of patent US20260327204A1, “DEGRADERS OF CYCLIN-DEPENDENT KINASE 12/13, COMPOSITIONS, AND USES THEREOF” (ZHEJIANG UNIVERSITY, priority 2023, published 2026).

SMILES strings stand for the structures. Like-named read-outs stand apart in the source and are kept apart here. A value given as a limit tells only on which side of the number the result lay.

One may read the half-life as how long it takes for the measured level to halve.

For the molecule `Cc1ncsc1-c1ccc([C@H](C)NC(=O)[C@@H]2C[C@@H](O)CN2C(=O)[C@@H](NC(=O)CN2CCN(c3ncc(-c4ccc(N(C(=O)NCc5ccccc5)[C@H]5CC[C@H](Nc6ccc(C#N)cn6)CC5)cc4)cn3)CC2)C(C)(C)C)cc1` [Formula 45], the DC50 was < 100 nM at CDK12 (DC50 classes, cell line not given, read-out: CDK12 degradation Activity); 34 nM at CDK12 (HCT116, colorectal cancer cells, read-out: CDK12 DC50); 28 nM at CDK12 (KASUMI-1, leukemia cells, read-out: CDK12 DC50); 29 nM on CDK12 (MDA-MB-231, breast cancer cells, read-out: CDK12 DC50); 30 nM on CDK12 (MV4-11, leukemia cells, read-out: CDK12 DC50); 24 nM at CDK13 [2]. For the same molecule, the DC50 at CDK13 [3] (DC50 classes, cell line not given, read-out: CDK13 degradation Activity) was < 100 nM; at CDK13 [3] (KASUMI-1, leukemia cells, read-out: CDK13 DC50) it was 17 nM; on CDK13 [3] (MDA-MB-231, breast cancer cells, read-out: CDK13 DC50) it was 18 nM; at CDK13 [3] (MV4-11, leukemia cells, read-out: CDK13 DC50), 21 nM. At CDK12 (FIGS. 2-9), the “degradation of CDK12” value is “has the strongest degradation effect”. For the same molecule, the half-life in data set [1], in data set [4], in data set [5] and in data set [6] was > 45 min each time. For the same molecule, the “degradation of CDK13” value at CDK13 [3] (FIGS. 2-9) is listed as “has the strongest degradation effect”.
